The source of these data is patent US7547676B2, “Antagonist peptides to the C5A chemotactic function of vitamin D binding protein” (The Research Foundation of State University of New York, priority 2004, dated 2009).

One series addresses T1, DBP (Homo sapiens, UniProt P02774).
T1 sequence (P02774 17-474): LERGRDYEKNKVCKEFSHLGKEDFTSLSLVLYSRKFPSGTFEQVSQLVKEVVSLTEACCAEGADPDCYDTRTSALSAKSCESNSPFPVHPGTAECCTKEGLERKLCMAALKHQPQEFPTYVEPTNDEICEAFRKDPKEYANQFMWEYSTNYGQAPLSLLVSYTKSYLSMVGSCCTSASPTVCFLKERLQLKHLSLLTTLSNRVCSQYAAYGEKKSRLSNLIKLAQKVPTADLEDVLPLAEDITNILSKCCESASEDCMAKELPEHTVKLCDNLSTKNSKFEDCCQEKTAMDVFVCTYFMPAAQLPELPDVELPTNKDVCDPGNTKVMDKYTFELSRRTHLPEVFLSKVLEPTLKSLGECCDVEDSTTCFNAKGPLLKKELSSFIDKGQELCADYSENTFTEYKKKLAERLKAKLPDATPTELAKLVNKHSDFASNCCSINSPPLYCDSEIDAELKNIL
The note with it: Cooke and Haddad, 1989; cited from earlier work.

The subject of series [1] is neutrophils. The experiment in a line: Neutrophil chemotaxis assay, C5a co-chemotactic activity of DBP. Type of series: cell-based, human. More on the design: effect on co-chemotactic activity of DBP, dose-response: dose or concentration left out as unconfirmed. From the text:
Isolation of human neutrophils Neutrophils, serum, and plasma were isolated from the venous blood of healthy, medication-free, paid volunteers who gave informed consent. The Institutional Review Board of Stony Brook University approved this procedure. These procedures have been described in detail previously (Kew et al., 1995a).
Neutrophil chemotaxis assay Cell movement was quantitated using a 48 well microchemotaxis chamber (Neuroprobe, Cabin John, Md.) and 5.0 μm pore size cellulose nitrate filters (purchased from Neuroprobe) as previously described (Kew et al., 1995a). Cell suspensions and chemotactic factors were prepared and/or diluted in the chemotaxis assay buffer (Hank's balanced salt solution supplemented with 10 mM HEPES (pH 7.4) and 1% bovine serum albumin). Cell movement was quantitated microscopically by measuring the distance in microns (μm) that the leading front of cells had migrated into the filter according to the method described by Zigmond and Hirsch (1973). In each experiment, five fields per duplicate filter were measured at 400× magnification.

Series [2] concerns Alkaline phosphatase activity on the plasma membrane of viable neutrophils. The series can be described thus: Neutrophil alkaline phosphatase assay (DiFMUP). Type of series: cell-based, human. To be noted: 5×10^6 cells pretreated with 10 nM 1,25(OH)2D3 or 10 μM SOV; untreated 11,107±1335 units. On the procedure:
Neutrophil alkaline phosphatase assay Alkaline phosphatase activity on the plasma membrane of viable neutrophils was measured using the fluorescent substrate 6,8-difluoro-4-methylumbelliferyl phosphate (DiFMUP) and the EnzChek Phosphatase Assay Kit (Molecular Probes, Eugene, Oreg.). Neutrophils (5×10^6 cells) were suspended in 50 μl of 0.1M sodium acetate (pH 5.0) and were immediately added to microtiter plates containing 50 μl of 0.2mM DiFMUP substrate and incubated for 5 min at 22° C. in the dark. A standard curve was generated using known amounts of the fluorescent compound 6,8-difluoro-7-hydroxy-4-methylcoumarin. Fluorescence was measured at 358 nm excitation and 455 nm emission using a SpectraMax M2 microtiter plate reader (Molecular Devices, Sunnydale, Calif.).

Series [3] relates to neutrophils. The experiment in a line: Neutrophil viability. To be noted: 10 μM SOV. Type of series: cell-based, human.
The target of a further series is T2, G-actin (Oryctolagus cuniculus, UniProt P68135).
T2 construct: G-actin was purified from rabbit skeletal muscle; from tissue; host or cells: rabbit skeletal muscle
The series can be described thus: G-actin binding detected by non-denaturing PAGE. The note with it: non-denaturing PAGE (data not shown). As to the method:
Functional characterization of reDBP. The capacity of reDBP to bind 25(OH)-vitamin D3 was measured to determine if the expressed proteins could functionally bind a physiological ligand. […] The ability of reDBPs to enhance C5a-mediated chemotaxis and Ca^2+ flux in differentiated HL-60 cells was determined next.

Series [4] deals with differentiated HL-60 cells. The series can be described thus: Ligand-induced calcium mobilization (Fluo-3 AM) in differentiated HL-60 cells. The class given is cell-based, Human. To be noted: differentiated HL-60 cells incubated 30 min with 50 nM of indicated DBP, then C5a. As to the method:
(§1) Cells and cell culture: Human promyelocytic cell line HL-60 was obtained from ATCC (Rockville, Md.) and cultured in RPMI 1640 medium supplemented with 10% FBS. Differentiation of HL-60 cells was initiated with 250 μM Bt2cAMP for 48 hours.
Ligand-induced calcium mobilization. Calcium mobilization studies were performed using the Fluo-3 AM probe as described previously (see Merritt, J. E. et al., Biochem. J. 269, 513-519 (1990)). Differentiated HL-60 cells (1×10^7 cells/ml) were resuspended in HBSS-1% BSA containing 2 μM Fluo-3 AM (Molecular Probes, Eugene, Oreg.) and incubated at 37° C. for 40 minutes. Cells incubated without the dye were used as a control to measure autofluorescence (Fmin). Following the dye uptake, cells were washed twice then suspended at 5×10^6 cells/ml in HBSS containing 1% BSA. Half of the cell suspension was treated with 50 nM DBP for 30 min at room temperature, the other half served as the untreated control. For each measurement, 400 μl of cell suspension (with or without DBP) was added to a cuvette and stimulated with various concentrations of purified C5a at room temperature (22-24° C.). Fluorescence was then measured immediately using a Perkin-Elmer LS-5 fluorometer at 505 nm excitation, 526 nm emission for Fluo-3 AM. Fmax was measured by treating labeled cells with 60 μM digitonin. Intracellular free calcium concentrations were calculated using the following formula: (Ca^2+)=Kd (F−Fmin)/(Fmax−F), where Kd=325 nM for Fluo-3 according to manufacturer (Molecular Probes).
Background: Calcium flux is commonly read through the fluorescence of an indicator in the cells.

Series [5] concerns differentiated HL-60 cells. The experiment in a line: Chemotaxis assay, differentiated HL-60 cells responding to C5a, C5a plus DBP or ZAS. The class given is cell-based, Human. The note with it: differentiated HL-60 cells; 100 pM C5a (FIG. 1: 25-200 pM) plus 50 nM of indicated DBP, 60 min at 37° C. As to the method: Cells (6×10^6/ml) were resuspended in chemotaxis buffer and treated either with chemotaxis buffer (control), 1 μM of peptide 1 (130-152), or 1 μM of peptide 2 (150-172) for 30 min at room temperature. The chemotactic response of differentiated HL-60 cells to 100 pM C5a alone, C5a plus 50 nM full-length natural DBP or 1% zymosan-activated serum (ZAS) was measured for 60 minutes at 37° C. Numbers represent net cell movement in 60 min, mean±SEM of 3 experiments.
as §1
Chemotaxis assay. Chemotaxis was performed as described previously (see Kew, R. R. et al., J. Leukoc. Biol. 58, 55-58 (1995)). In brief, 35 μl of C5a (0.01 to 1 nM) in the chemotaxis buffer (HBSS with 1% BSA, 10 mM HEPES) were placed in duplicate in the lower chamber of a 48-well chamber (Neuroprobe, Md.). The lower compartments were covered with a 5 μm pore cellulose nitrate filter and then 50 μl of the cell suspension (2.5×10^5/well) was pipetted into the upper compartments. The chemotactic chamber was incubated for 1 hour at 37° C. in a humidified incubator with 5% CO2. Following incubation, the filter was fixed, stained and mounted on a microscope slide. Cell movement was measured as the distance in microns that the leading front of the cells had migrated into the filter (see Zigmond, S. et al., J. Exp. Med. 137, 387 (1973)).

As for `C=C1CC[C@H](O)C/C1=C/C=C1\CCC[C@]2(C)[C@@H]([C@H](C)CCCC(C)(C)O)CC[C@@H]12` [25(OH)D3], the “affinity for DBP relative to 1,25(OH)2D3” value on DBP was 10 fold. Besides, the “effect on co-chemotactic activity of DBP, dose-response” value in the series with neutrophils [1] (bound to DBP) is “no effect on co-chemotactic activity”. For the same molecule, the “effect on co-chemotactic activity of DBP (neutrophil chemotaxis toward C5a)” value in the series with neutrophils [1] (ligand bound to DBP, 1,25(OH)2D3 100 nM) is reported as “did not alter its ability to enhance neutrophil chemotaxis toward C5a”.
Take `[Na+].[Na+].[Na+].[O]=[V]([O-])([O-])[O-]` [SOV, sodium orthovanadate]: the “neutrophil AP activity” value in series [2] was determined as 667±111 units. Moreover, the “cells ability to migrate towards C5a plus DBP” value in the series with neutrophils [1] (SOV alone) is on record as “no effect”. For the same molecule, the “reversal of the inhibitory effect of 1,25(OH)2D3 on the C5a co-chemotactic activity of DBP” value with neutrophils [1] (neutrophils pretreated with 10 μM SOV) was “completely reverses the inhibitory effect”. Further, the cell viability entry with neutrophils [3] is recorded as “did not alter cell viability”.

B1: full-length reDBP: E. coli expressed full-length human DBP (Gc-2 allele), residues 1-458 (protein)
chain: LERGRDYEKNKVCKEFSHLGKEDFTSLSLVLYSRKFPSGTFEQVSQLVKEVVSLTEACCAEGADPDCYDTRTSALSAKSCESNSPFPVHPGTAECCTKEGLERKLCMAALKHQPQEFPTYVEPTNDEICEAFRKDPKEYANQFMWEYSTNYGQAPLSLLVSYTKSYLSMVGSCCTSASPTVCFLKERLQLKHLSLLTTLSNRVCSQYAAYGEKKSRLSNLIKLAQKVPTADLEDVLPLAEDITNILSKCCESASEDCMAKELPEHTVKLCDNLSTKNSKFEDCCQEKTAMDVFVCTYFMPAAQLPELPDVELPTNKDVCDPGNTKVMDKYTFELSRRTHLPEVFLSKVLEPTLKSLGECCDVEDSTTCFNAKGPLLKKELSSFIDKGQELCADYSENTFTEYKKKLAERLKAKLPDATPKELAKLVNKRSDFASNCCSINSPPLYCDSEIDAELKNIL
For B1, the G-actin binding entry with G-actin is on record as “bound G-actin in a 1:1 molar complex”. In series [4], the “enhancement of intracellular Ca2+ flux in response to C5a” value was “significantly enhanced”. In addition, in series [5], the “enhancement of C5a-mediated chemotaxis (net cell movement)” value is listed as “significantly enhanced”.
